Laboratory results reported in the NIST ThermoML archive (doi:10.1016/j.jct.2018.11.013).
± gives the expanded uncertainty stated by the source.

Assay: Boiling temperature at pressure P
Details: 101.3 kPa; Liquid; Ebulliometric method (Recirculating still)

Boiling temperature at pressure P [°C]	SMILES
82.12 ± 0.71	CC(C)O [propan-2-ol]
68.62 ± 0.71	CC(C)OC(C)C [diisopropyl ether]
135.04 ± 0.71	CCOCCO [2-ethoxyethan-1-ol]

SMILES	Boiling temperature at pressure P [°C]
CCCCOC(C)=O [butyl ethanoate]	126.11 ± 0.71
